Laboratory results taken from patent publication US10947241B2, “Phenyl phthalazine derivative, method for the preparation thereof, and pharmaceutical composition comprising the same” (Seoul National University Hospital, priority 2016, dated 2021).
Where a name gives a salt, the structure may show the parent alone.

Target: hResistin (Homo sapiens (Human), UniProt Q9HD89)
Assay: Evaluation of the ability to inhibit TNF-α secretion by hResistin (THP-1 cells, ELISA)
Format: cell-based
Conditions: for inhibition at 5 µM: inhibition of TNF-α secretion by hResistin in THP-1 cells; for IC50: THP-1 human monocyte cell line, human recombinant Resistin
Method: Experimental Example: Evaluation of the Ability to Inhibit TNF-α Secretion by hResistin
Using THP-1 (human monocyte) cell line and ELISA system, the abilities to inhibit TNF-α secretion by hResistin (IC50) were evaluated for the compounds prepared in the above examples. The compounds target hResistin, and the abilities of the compounds to inhibit TNF-α secretion by human recombinant Resistin in human monocyte (THP-1) were evaluated. The abilities to inhibit TNF-α secretion were assessed by ELISA quantifying the amount of antibody with the enzyme as a marker using an antigen-antibody reaction.
Specifically, the cultured cells were spun down at 1,500 rpm for 2 minutes, the supernatant was removed and then the cells were re-suspended in 10 mL of complete RPMI-1640 medium. After counting the number of cells using Luna™ Automated Cell Counter, cells were plated into 96-well assay plates at 50 μL per well. The cells cultured for 24 hours were treated with the test substances in accordance with the concentration for 1 hour, and then the supernatant was collected and subjected to ELISA assay. In the ELISA assay, the absorbance at 450 nm (OD450 nm) was measured using Flexstation 3. The ability of each test substance to inhibit TNF-α secretion (IC50) and its inhibition at a concentration of 5 uM are shown in Table 1 below.

Chain of hResistin (Q9HD89 19-108): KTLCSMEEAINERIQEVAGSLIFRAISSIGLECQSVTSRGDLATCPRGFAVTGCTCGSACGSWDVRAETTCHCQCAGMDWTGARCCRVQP

Row | Structure (SMILES) | inhibition at 5 µM [%] | IC50 [nM]
1 | N[C@@H](Cc1c[nH]cn1)C(=O)N1CCN(c2nnc(-c3ccc(Cl)cc3)c3ccccc23)CC1 [Example 76, (S)-2-amino-1-(4-(4-(4-chlorophenyl)phthalazin-1-yl)piperazin-1-yl)-3-(1H-imidazol-4-yl)propan-1-one dihydrochloride] | 28.9 | 
2 | CC(C)(N)C(=O)N1CCC(c2nnc(-c3ccc(Cl)cc3)c3ccccc23)CC1 [Example 64, 2-amino-1-(4-(4-(4-chlorophenyl)phthalazin-1-yl)piperidin-1-yl)-2-methylpropan-1-one hydrochloride] | 23.9 | 
3 | CC(C)[C@H](N)C(=O)N1CCC(c2nnc(-c3ccc(Cl)cc3)c3ccccc23)CC1 [Example 61, (S)-2-amino-1-(4-(4-(4-chlorophenyl)phthalazin-1-yl)piperidin-1-yl)-3-methylbutan-1-one hydrochloride] | 21.2 | 
4 | CC[C@H](C)[C@H](N)C(=O)N1CCC(c2nnc(-c3ccc(Cl)cc3)c3ccccc23)CC1 [Example 63, (2S,3S)-2-amino-1-(4-(4-(4-chlorophenyl)phthalazin-1-yl)piperidin-1-yl)-3-methylpentan-1-one hydrochloride] | 53.6 | 
5 | CNCCCN(C)c1nnc(-c2ccc(Cl)cc2)c2ccccc12 [Example 55, N1-(4-(4-chlorophenyl)phthalazin-1-yl)-N1,N3-dimethylpropane-1,3-diamine hydrochloride] | 13.1 | 
6 | CC(=O)N1CCN(c2nnc(-c3ccc(C)cc3)c3ccccc23)CC1 [Example 2, 1-(4-(4-p-tolylphthalazin-1-yl)piperazin-1-yl)ethanone] |  | 5000
7 | C[C@@H](N)C(=O)N1CCN(c2nnc(-c3ccc(Cl)cc3)c3ccccc23)CC1 [Example 36, (R)-2-amino-1-(4-(4-(4-chlorophenyl)phthalazin-1-yl)piperazin-1-yl)propan-1-one hydrochloride] | 75.8 | 2500
8 | C[C@H]1CN(C(=O)C(C)(C)N)CCN1c1nnc(-c2ccc(Cl)cc2)c2ccccc12 [Example 74, (S)-2-amino-1-(4-(4-(4-chlorophenyl)phthalazin-1-yl)-3-methylpiperazin-1-yl)-2-methylpropan-1-one hydrochloride] | 38.7 | 
9 | O=C([C@H]1CCCN1)N1CCN(c2nnc(-c3ccc(Cl)cc3)c3ccccc23)CC1 [Example 51, (R)-(4-(4-(4-chlorophenyl)phthalazin-1-yl)piperazin-1-yl)(pyrrolidin-2-yl)methanone hydrochloride] | 88.2 | 800
10 | O=S(=O)(C1CCCC1)N1CCN(c2nnc(-c3ccc(Cl)cc3)c3ccccc23)CC1 [Example 34, 1-(4-chlorophenyl)-4-(4-(cyclopentylsulfonyl)piperazin-1-yl)phthalazine] | 64.9 | 3000
11 | OCCC1CCN(c2nnc(-c3ccc(Cl)cc3)c3ccccc23)CC1 [Example 4, 2-(1-(4-(4-chlorophenyl)phthalazin-1-yl)piperidin-4-yl)ethanol] | 40.4 | 1600
12 | C[C@H]1CN(c2nnc(-c3ccc(Cl)cc3)c3ccccc23)CCN1C(=O)C(C)(C)N [Example 72, (S)-2-amino-1-(4-(4-(4-chlorophenyl)phthalazin-1-yl)-2-methylpiperazin-1-yl)-2-methylpropan-1-one hydrochloride] | 72.2 | 
13 | Clc1ccc(-c2nnc(N3CCC(N4CCOCC4)CC3)c3ccccc23)cc1 [Example 8, 4-(1-(4-(4-chlorophenyl)phthalazin-1-yl)piperidin-4-yl)morpholine] | 54.4 | 
14 | CNC1CCN(c2nnc(-c3ccc(Cl)cc3)c3ccccc23)C1 (stereo not shown) [Example 46, 1-(4-(4-chlorophenyl)phthalazin-1-yl)-N-methylpyrrolidin-3-amine hydrochloride] | 97.8 | 300
15 | O=C(C1CC1)N1CCC(c2nnc(-c3ccc(Cl)cc3)c3ccccc23)CC1 [Example 56, (4-(4-(4-chlorophenyl)phthalazin-1-yl)piperidin-1-yl)(cyclopropyl)methanone] | 26.2 | 
16 | NCCN1CCN(c2nnc(-c3ccc(Cl)cc3)c3ccccc23)CC1 [Example 38, 2-(4-(4-(4-chlorophenyl)phthalazin-1-yl)piperazin-1-yl)ethanamine hydrochloride] | 69.5 | 7900
17 | CN[C@@H]1CCCN(c2nnc(-c3ccc(Cl)cc3)c3ccccc23)C1 [Example 57, (R)-1-(4-(4-chlorophenyl)phthalazin-1-yl)-N-methylpiperidin-3-amine hydrochloride] | 92.8 | 1000
18 | OCCN1CCN(c2nnc(-c3ccccc3)c3ccccc23)CC1 [Example 1, 2-(4-(4-phenylphthalazin-1-yl)piperazin-1-yl)ethanol] |  | 1000
19 | CC(C)(N)C(=O)N1CC=C(c2nnc(-c3ccc(Cl)cc3)c3ccccc23)CC1 [Example 44, 2-amino-1-(4-(4-(4-chlorophenyl)phthalazin-1-yl)-5,6-dihydropyridin-1(2H)-yl)-2-methylpropan-1-one hydrochloride] | 50.5 | 
20 | CC(C)[C@H](N)C(=O)N1CCN(c2nnc(-c3ccc(Cl)cc3)c3ccccc23)CC1 [Example 47, (S)-2-amino-1-(4-(4-(4-chlorophenyl)phthalazin-1-yl)piperazin-1-yl)-3-methylbutan-1-one hydrochloride] | 87.1 | 700
21 | CC[C@H](C)[C@H](N)C(=O)N1CCN(c2nnc(-c3ccc(Cl)cc3)c3ccccc23)CC1 [Example 60, (2S,3S)-2-amino-1-(4-(4-(4-chlorophenyl)phthalazin-1-yl)piperazin-1-yl)-3-methylpentan-1-one hydrochloride] | 91.2 | 1900

Results, then the molecule that gave them:

Row | inhibition at 5 µM [%] | IC50 [nM] | Structure (SMILES)
22 | 37 |  | CC(C)(N)C(=O)N1CCN(c2nnc(-c3ccc(C(F)(F)F)cc3)c3ccccc23)CC1 [Example 102, 2-amino-2-methyl-1-(4-(4-(4-(trifluoromethyl)phenyl)phthalazin-1-yl)piperazin-1-yl)propan-1-one hydrochloride]
23 | 76.6 | 600 | CNC1CCN(c2nnc(-c3ccc(Cl)cc3)c3cc(F)ccc23)C1 (stereo not shown) [Example 91, 1-(4-(4-chlorophenyl)-6-fluorophthalazin-1-yl)-N-methylpyrrolidin-3-amine hydrochloride]
24 |  | 18000 | NC(CCC(=O)O)C(=O)N1CCN(c2nnc(-c3ccc(Cl)cc3)c3ccccc23)CC1 (stereo not shown) [Example 86, 4-amino-5-(4-(4-(4-chlorophenyl)phthalazin-1-yl)piperazin-1-yl)-5-oxopentanoic acid hydrochloride]
25 | 77.9 | 1800 | CNC1CCN(c2nnc(-c3ccc(Cl)cc3)c3ccc(Cl)cc23)C1 (stereo not shown) [Example 89, 1-(7-chloro-4-(4-chlorophenyl)phthalazin-1-yl)-N-methylpyrrolidin-3-amine hydrochloride]
26 | 3.9 |  | CNC1CCN(c2nnc(Cc3ccc(Cl)cc3)c3ccccc23)C1 (stereo not shown) [Example 98, 1-(4-(4-chlorobenzyl)phthalazin-1-yl)-N-methylpyrrolidin-3-amine hydrochloride]
27 | 48.1 |  | O=C1CN[C@H](C(=O)N2CCN(c3nnc(-c4ccc(Cl)cc4)c4ccccc34)CC2)CN1 [Example 81, (S)-5-(4-(4-(4-chlorophenyl)phthalazin-1-yl)piperazine-1-carbonyl)piperazin-2-one hydrochloride]
28 |  | 1700 | Clc1ccc(-c2nnc(N3CCC4CCNC4C3)c3ccccc23)cc1 (stereo not shown) [Example 87, 1-(4-chlorophenyl)-4-(tetrahydro-1H-pyrrolo[2,3-c]pyridin-6(2H,7H,7aH)-yl)phthalazine hydrochloride]
29 |  | 900 | Clc1ccc(-c2nnc(N3CC4CCNC4C3)c3ccccc23)cc1 (stereo not shown) [Example 88, 1-(4-chlorophenyl)-4-(hexahydropyrrolo[3,4-b]pyrrol-5(1H)-yl)phthalazine hydrochloride]
30 | 81.3 |  | O=C(C1CCCCN1)N1CCN(c2nnc(-c3ccc(Cl)cc3)c3ccccc23)CC1 (stereo not shown) [Example 78, (4-(4-(4-chlorophenyl)phthalazin-1-yl)piperazin-1-yl)(piperidin-2-yl)methanone hydrochloride]
31 | 46.7 |  | CC(C)(C)C(N)C(=O)N1CCN(c2nnc(-c3ccc(Cl)cc3)c3ccccc23)CC1 (stereo not shown) [Example 77, 2-amino-1-(4-(4-(4-chlorophenyl)phthalazin-1-yl)piperazin-1-yl)-3,3-dimethylbutan-1-one hydrochloride]
32 | 32 |  | CC(C)(N)C(=O)N1CCN(c2nnc(-c3ccc(OC(F)(F)F)cc3)c3ccccc23)CC1 [Example 103, 2-amino-2-methyl-1-(4-(4-(4-(trifluoromethoxy)phenyl)phthalazin-1-yl)piperazin-1-yl)propan-1-one hydrochloride]
33 | 67.6 | 1900 | CNC1CCN(c2nnc(Oc3ccc(Cl)cc3)c3ccccc23)C1 (stereo not shown) [Example 93, 1-(4-(4-chlorophenoxy)phthalazin-1-yl)-N-methylpyrrolidin-3-amine hydrochloride]
34 | 50 |  | CC(C)(C(=O)O)N1CCN(c2nnc(-c3ccc(Cl)cc3)c3ccccc23)CC1 [Example 82, 2-(4-(4-(4-chlorophenyl)phthalazin-1-yl)piperazin-1-yl)-2-methylpropanoic acid]
